Tests used:
SNU475 cell line [1] = settings: known property of the SNU475 cell line; cited from earlier work
[2] = test system: Huh7 and Hep3B cell lines; test: Cell viability in hepatocellular carcinoma cell lines without drug resistance; assay type: cell-based; settings: 0, 1, and 3 µM range, FIG. 4A
Procedure: (§1) For cell viability measurements on cancer cell lines, three hepatocellular carcinoma cell lines (Huh-7, Hep3B, and SNU475) were seeded in a 384-well plate at a density of 2,000 cells/40 μl/well. After incubation for 16 hours, the extract of the present invention was treated at a concentration of 10 μl/well, followed by incubation at 37° C. for 48 hours. After 48 hours, 40 μl/well of the medium was removed and 4% paraformaldehyde was added to be a 30 μl/well, followed by incubation at room temperature for 10 minutes. Thereafter, after washing with DPBS, nuclear staining was performed with Hoechst33342 at a concentration of […] at room temperature for 10 minutes. After washing twice with DPBS, images were acquired with Operetta. The cell viability was identified by counting the number of cells using Operetta software.

SNU475 cell line [3] = test: Cell viability in anticancer drug-resistant cancer cells; assay type: cell-based; settings: 0, 1, and 3 µM range, FIG. 4A
Procedure: as §1

In the case of CNC(=O)c1cc(Oc2ccc(NC(=O)Nc3ccc(Cl)c(C(F)(F)F)c3)c(F)c2)ccn1 [regorafenib], the “resistance of SNU475 to regorafenib” value (SNU475 cell line [1]) is given as “strong resistance”.
For CNC(=O)c1cc(Oc2ccc(NC(=O)Nc3ccc(Cl)c(C(F)(F)F)c3)cc2)ccn1 [sorafenib], the “anticancer effect of sorafenib in Huh7 and Hep3B” value [2] was “anticancer effect was exhibited” and the “anticancer effect of sorafenib in SNU475” value (SNU475 cell line [3]) was “exhibited resistance”.

Reference: patent US20250009835A1, “PHARMACEUTICAL COMPOSITION AND HEALTH FUNCTIONAL FOOD FOR PREVENTION OR TREATMENT OF CANCER COMPRISING MIXED HERBAL EXTRACT” (H&O BIOSIS CO., LTD., priority 2021, published 2025)
